Assay results from patent US20250041279A1, “THERAPEUTIC MEDICINE FOR HEART DISEASE OR SKELETAL MUSCLE DISEASE” (SHIONOGI & CO., LTD., priority 2021, published 2025).

Assays:
[1] = biological target: recombinant human ACC2 (Homo sapiens (Human), UniProt O00763); test: Measurement of inhibitory activity of human ACC2 (MALDI-TOF MS); type: biochemical; conditions: read-out: IC50 hACC2
Excerpt: A cDNA encoding human ACC2 protein (27 amino acid residues to 2458 amino acid residues from the N-terminus) was cloned from a human kidney cDNA library (Clontech Laboratories, Inc.), a His-tag sequence was introduced at the 5′ end, and then inserted into pFastBac1 (Invitrogen). A recombinant baculovirus was produced in accordance with the protocol for a Bac-to-Bac baculovirus expression system (Invitrogen), and Sf-9 cells were infected therewith to express human ACC2 protein. The recovered cells were crushed, filtered through a filter, and then subjected to Ni affinity chromatography and anion exchange chromatography. Fractions containing human ACC2 protein were collected to obtain recombinant human ACC2.
The recombinant human ACC1 and the recombinant human ACC2 obtained from the above Preparation Examples were preincubated in an assay buffer (50 mM HEPES-KOH (pH 7.4), 10 mM magnesium chloride, 6 to 10 mM potassium citrate, 4 mM glutathione reduced form, and 1.5 mg/ml bovine serum albumin) for 1 hour. […] Deprotonated ions of the substrate acetyl-CoA (AcCoA) and the reaction product malonyl-CoA (MalCoA) were detected, and the intensity of each signal was used to calculate a conversion rate to malonyl-CoA or succinyl-CoA, i.e., intensity of [MalCoA-H]—/(intensity of [MalCoA-H]-+intensity of [AcCoA.H].). […] The potassium citrate concentration in the assay buffer, the potassium bicarbonate concentration in the substrate solution, and the incubation time were adjusted within the above concentrations or reaction times for each lot of the enzyme to be used.

[2] = Metabolic stability test, human liver microsomes; type: in vitro ADME; conditions: 37° C., 30 minutes, NADPH
Protocol: Commercially available pooled human liver microsomes were reacted with the compound of the present invention for a given time. A residual rate was calculated by comparison between the reacted sample and the unreacted sample to evaluate a degree at which the compound of the present invention is metabolized in the liver.
The compound was reacted at 37° C. for 0 minutes or 30 minutes in the presence of 1 mmol/L NADPH in 0.2 mL of a buffer (50 mmol/L Tris-HCl pH 7.4, 150 mmol/L potassium chloride, and 10 mmol/L magnesium chloride) containing 0.5 mg protein/mL of the human liver microsomes (oxidative reaction). After the reaction, 50 μL of the reaction solution was added to 100 μL of a solution of methanol/acetonitrile=1/1 (v/v) and mixed, and the mixture was centrifuged at 3000 rpm for 15 minutes. The compound of the present invention in the centrifuged supernatant was quantified by LC/MS/MS or solid-phase extraction (SPE)/MS. The amount of the compound of the present invention remained after the reaction was calculated with the amount of the compound at 0 minutes of the reaction defined as 100%.

[3] = Metabolic stability test, rat; type: in vitro ADME; conditions: 30 minutes
[4] = test system: Atgl knockout mice; test: Long-chain fatty acid metabolizing ability in Atgl knockout mouse myocardium (BMIPP SPECT/CT wash out rate); type: in vivo
Protocol: Atgl (adipose-triglyceride lipase) knockout mice are known as non clinical models of TGCV. Atgl knockout mice (KO mice) deficient in the Atgl gene were each produced by a known method.
The compound of the present invention was suspended in a 0.5% HPMC aqueous solution so that the dose of the same was 30 or 45 mg/kg/10 mL, and orally administered to 6 to 7-week-old male Atgl knockout mice on the day before and the day when the long chain fatty acid metabolizing ability was measured. On the day of measurement of long-chain fatty acid metabolizing ability, 14.6 MBq/mouse of iodine-123-8 methyl iodophenyl-pen-tadecanoic acid (BMIPP) was administered via the tail vein. At 1 hour and 4 hours after administration, the mice were imaged by single-photon emission computed tomography (SPECT)/CT under anesthesia, and the radioactivity of the administered BMIPP in the myocardium was measured. The metabolism of long-chain fatty acids in the myocardium was calculated as a wash out rate by the following formula.

[5] = test system: Crl:CD (SD) rats; test: Influence on platelet count in SD rats; type: in vivo; conditions: for Platelet count: mean ± standard deviation; for effect on platelet count: within the dose range used for evaluation
Protocol: The compound of the present invention was suspended in a 0.5% methylcellulose solution so as to have a dose of 50 to 600 mg/kg/day, and was orally repeatedly administered for 4 days to 6-week-old male Crl:CD (SD) rats under non-fasted conditions. On day 5 from the start of administration, blood was collected from the abdominal vena cava under anesthesia, and […]. A platelet count in plasma was evaluated with an automatic hemocytometer.

[6] = test system: C57BL/6JJcl mice; test: Plasma triglyceride concentration in mice fed ultra-high fat, choline-deficient, methionine-lowered diet; type: in vivo; conditions: for Plasma triglyceride concentration: bid, mean ± standard error; for plasma triglyceride concentration versus vehicle-administered group: mice fed ultra-high fat, choline-deficient, methionine-lowered diet, repeated oral b.i.d.
Protocol: Six-week-old male C57BL/6JJcl mice were fed an ultra-high fat, choline-deficient, methionine-lowered diet (60 kcal % fat content, using lard, choline-deficient, methionine-lowered (0.1%)), and at the same time, the compound of the present invention was suspended in a vehicle (0.5% methylcellulose aqueous solution) so as to have a dose of 3 to 45 mg/kg/10 mL, and orally repeatedly administered (b.i.d.) for 8 weeks. Blood was collected from the tail vein during the repeated administration period, and biochemical parameters in plasma were measured.

Chain of recombinant human ACC2 (O00763 27-2458): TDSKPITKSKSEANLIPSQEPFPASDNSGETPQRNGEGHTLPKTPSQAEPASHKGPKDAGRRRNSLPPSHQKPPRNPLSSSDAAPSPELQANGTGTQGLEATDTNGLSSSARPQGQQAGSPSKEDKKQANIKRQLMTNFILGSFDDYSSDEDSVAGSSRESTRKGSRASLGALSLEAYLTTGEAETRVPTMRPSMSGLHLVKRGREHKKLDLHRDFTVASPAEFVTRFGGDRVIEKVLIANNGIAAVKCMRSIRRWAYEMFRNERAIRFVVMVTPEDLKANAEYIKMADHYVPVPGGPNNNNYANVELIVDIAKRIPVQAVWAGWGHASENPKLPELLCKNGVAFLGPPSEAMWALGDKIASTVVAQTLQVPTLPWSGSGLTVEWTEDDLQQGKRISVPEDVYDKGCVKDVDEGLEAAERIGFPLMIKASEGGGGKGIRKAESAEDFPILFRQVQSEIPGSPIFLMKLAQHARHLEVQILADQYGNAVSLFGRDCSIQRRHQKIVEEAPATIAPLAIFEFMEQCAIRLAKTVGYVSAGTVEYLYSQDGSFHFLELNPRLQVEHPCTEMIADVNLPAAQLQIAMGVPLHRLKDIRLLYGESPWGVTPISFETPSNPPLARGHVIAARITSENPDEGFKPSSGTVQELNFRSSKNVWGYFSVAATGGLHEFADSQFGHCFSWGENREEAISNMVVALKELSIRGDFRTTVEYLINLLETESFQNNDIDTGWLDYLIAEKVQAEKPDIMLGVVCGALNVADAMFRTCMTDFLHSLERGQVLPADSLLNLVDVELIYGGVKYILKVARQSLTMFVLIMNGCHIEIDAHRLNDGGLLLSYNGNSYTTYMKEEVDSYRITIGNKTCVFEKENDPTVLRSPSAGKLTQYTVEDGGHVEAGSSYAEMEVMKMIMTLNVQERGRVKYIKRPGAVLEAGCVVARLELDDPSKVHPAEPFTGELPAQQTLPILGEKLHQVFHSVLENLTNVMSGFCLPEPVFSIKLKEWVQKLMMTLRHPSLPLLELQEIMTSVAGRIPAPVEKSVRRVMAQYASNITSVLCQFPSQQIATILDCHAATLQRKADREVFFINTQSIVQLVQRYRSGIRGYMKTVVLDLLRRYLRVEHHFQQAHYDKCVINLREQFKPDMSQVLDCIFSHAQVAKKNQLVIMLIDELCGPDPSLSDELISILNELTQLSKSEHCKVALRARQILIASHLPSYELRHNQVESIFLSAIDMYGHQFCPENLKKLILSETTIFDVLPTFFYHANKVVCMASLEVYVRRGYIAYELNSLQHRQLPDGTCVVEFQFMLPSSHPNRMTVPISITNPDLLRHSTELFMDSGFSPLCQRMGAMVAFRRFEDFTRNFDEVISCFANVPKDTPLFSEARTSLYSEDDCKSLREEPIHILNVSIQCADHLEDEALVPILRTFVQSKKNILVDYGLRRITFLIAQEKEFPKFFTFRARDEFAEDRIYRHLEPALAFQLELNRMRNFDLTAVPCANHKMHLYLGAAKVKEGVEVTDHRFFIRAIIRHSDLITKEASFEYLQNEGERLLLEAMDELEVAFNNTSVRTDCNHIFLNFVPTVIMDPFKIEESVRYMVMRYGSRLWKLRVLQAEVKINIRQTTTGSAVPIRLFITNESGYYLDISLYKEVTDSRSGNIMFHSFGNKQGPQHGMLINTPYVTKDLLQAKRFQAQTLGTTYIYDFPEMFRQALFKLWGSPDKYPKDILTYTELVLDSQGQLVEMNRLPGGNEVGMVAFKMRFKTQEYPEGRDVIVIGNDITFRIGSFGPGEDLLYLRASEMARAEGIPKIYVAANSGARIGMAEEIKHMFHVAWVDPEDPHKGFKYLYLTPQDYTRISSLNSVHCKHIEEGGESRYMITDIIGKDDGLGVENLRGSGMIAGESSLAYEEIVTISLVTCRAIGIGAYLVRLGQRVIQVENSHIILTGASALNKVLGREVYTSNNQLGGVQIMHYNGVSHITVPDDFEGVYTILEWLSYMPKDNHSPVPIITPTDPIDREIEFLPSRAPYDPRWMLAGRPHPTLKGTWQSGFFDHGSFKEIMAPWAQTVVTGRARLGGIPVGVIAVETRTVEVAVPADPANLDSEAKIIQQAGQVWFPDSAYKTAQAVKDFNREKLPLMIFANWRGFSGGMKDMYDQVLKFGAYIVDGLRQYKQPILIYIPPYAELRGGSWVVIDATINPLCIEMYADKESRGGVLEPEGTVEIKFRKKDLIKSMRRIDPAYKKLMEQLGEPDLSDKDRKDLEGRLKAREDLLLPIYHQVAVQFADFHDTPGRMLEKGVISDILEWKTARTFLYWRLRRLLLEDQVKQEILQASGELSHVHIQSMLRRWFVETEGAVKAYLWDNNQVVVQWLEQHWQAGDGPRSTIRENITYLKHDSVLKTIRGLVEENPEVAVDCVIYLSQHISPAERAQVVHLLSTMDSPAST

For C[C@@H](COC1CCC(Oc2nc3c(F)cc(OC4CC4)cc3n2C)CC1)NC(N)=O (stereo partly shown) [Compound I-12], the IC50 [1] was 5.6 nM, the “Remaining amount of compound, Human” value [2] was 83.3% and the “Remaining amount of compound, Rat” value [3] was 85.5%. The “long chain fatty acid metabolizing ability in myocardium (wash out rate)” value ([4]; 30 mg/kg/10 mL oral, p=0.096, Welch's t test) was “tended to improve”, the Platelet count ([5]; 100 mg/kg/day oral for 4 days) was 987 ± 86 and the Platelet count ([5]; 300 mg/kg/day oral for 4 days) was 988 ± 43. For the same compound, the Platelet count ([5]; 600 mg/kg/day oral for 4 days) was 1061 ± 85, the “effect on platelet count” value [5] was “did not affect” and the Plasma triglyceride concentration ([6]; 3 mg/kg, 2 weeks) was 32.9 ± 1.3 mg/dL. It also gave a Plasma triglyceride concentration ([6]; 3 mg/kg, 4 weeks) of 22.4 ± 2.1 mg/dL, a Plasma triglyceride concentration ([6]; 3 mg/kg, 7 weeks) of 27.2 ± 1.5 mg/dL and a Plasma triglyceride concentration ([6]; 10 mg/kg, 2 weeks) of 30.4 ± 2.2 mg/dL. For the same compound, the Plasma triglyceride concentration ([6]; 10 mg/kg, 4 weeks) was 21.5 ± 1.8 mg/dL, the Plasma triglyceride concentration ([6]; 10 mg/kg, 7 weeks) was 22.1 ± 1.9 mg/dL and the Plasma triglyceride concentration ([6]; 30 mg/kg, 2 weeks) was 23.1 ± 2.5 mg/dL. For the same compound, the Plasma triglyceride concentration ([6]; 30 mg/kg, 4 weeks) was 11.1 ± 1.1 mg/dL, the Plasma triglyceride concentration ([6]; 30 mg/kg, 7 weeks) was 16.2 ± 1.6 mg/dL and the “plasma triglyceride concentration versus vehicle-administered group” value [6] was “lower than that in the vehicle-administered group”.
With CC(=O)N[C@@H](C)CCC1OCC(Oc2nc3c(F)c(OC4CC4)ccc3n2C)CO1 (stereo partly shown) [Compound I-13] the IC50 [1] was 6.6 nM, the “Remaining amount of compound, Human” value [2] was 95.4% and the “Remaining amount of compound, Rat” value [3] was 87%. The “long-chain fatty acid metabolizing ability in myocardium (wash out rate)” value ([4]; 45 mg/kg/10 mL oral, p<0.05, Welch's t test) was “significant improving effect”, the Platelet count ([5]; 50 mg/kg/day oral for 4 days) was 1079 ± 73 and the Platelet count ([5]; 100 mg/kg/day oral for 4 days) was 1048 ± 65. For the same compound, the Platelet count ([5]; 200 mg/kg/day oral for 4 days) was 1122 ± 87, the “effect on platelet count” value [5] was “did not affect” and the Plasma triglyceride concentration ([6]; 15 mg/kg, 0 weeks) was 61.6 ± 3.1 mg/dL. The Plasma triglyceride concentration ([6]; 15 mg/kg, 1 week) was 23.7 ± 1.0 mg/dL, the Plasma triglyceride concentration ([6]; 15 mg/kg, 3 weeks) was 19.8 ± 1.2 mg/dL and the Plasma triglyceride concentration ([6]; 15 mg/kg, 5 weeks) was 19.0 ± 1.7 mg/dL. The Plasma triglyceride concentration ([6]; 15 mg/kg, 7 weeks) was 18.8 ± 1.2 mg/dL, the Plasma triglyceride concentration ([6]; 45 mg/kg, 0 weeks) was 63.6 ± 3.7 mg/dL and the Plasma triglyceride concentration ([6]; 45 mg/kg, 1 week) was 22.4 ± 2.5 mg/dL. The Plasma triglyceride concentration ([6]; 45 mg/kg, 3 weeks) was 18.9 ± 1.4 mg/dL, the Plasma triglyceride concentration ([6]; 45 mg/kg, 5 weeks) was 16.5 ± 1.7 mg/dL and the Plasma triglyceride concentration ([6]; 45 mg/kg, 7 weeks) was 15.1 ± 1.0 mg/dL. The “plasma triglyceride concentration versus vehicle-administered group” value [6] was “lower than that in the vehicle-administered group”.
